Laboratory results published in patent US20080248008A1, “Inhibitors of Protein Kinase a Anchoring” (priority 2004, published 2008).

Experiments:
[1] = target: T1, RI (A98S) (Bos taurus, UniProt P00514, A98S); experiment: R-overlay (solid-phase binding) of 32P-labelled RI on membrane-synthesized peptides; design: species or system bovine
T1 construct: made in house; host or cells: E. coli BL21 (B121 [sic])
Experimental: Autospot Peptide Array. Peptide arrays were synthesized on cellulose paper by using an Autospot Robot ASP222 (ABiMED, Langenfeld, Germany) as described (Frank, R., 1992, Tetrahedron 48, 123-132) or Multipep automated peptide synthesizer (INTAVIS Bioanalytical Instruments AG, Koeln, Germany) as described (Frank, R., 1992, Tetrahedron 48, 123-132).
R-overlay. R-overlays were conducted as described, using ^32P-labeled recombinant murine RII (Hausken, Z. E., et al., 1998 in Protein Targeting Protocols, ed. Clegg, R. A. (Humana, Totowa, N.J.), Vol. 88, pp. 47-64) or recombinant bovine RI (A98S) or by cold RI-overlay where bound RIα was detected by Western blot. Cold RI-overlay was performed by incubating the membranes with 250 nM RI overnight at 4° C., then the membranes were washed five times in TBST for 5 min. Detection of RI was performed using an anti-RI rabbit polyclonal antibody (Santa Cruz) at a concentration of 0.2 μg/μl for 1 hour at 4° C. Then the membranes were washed five times for 5 minutes in PBS followed by incubation with HRP-conjugated anti-rabbit IgGs (1:5000) for 1 hour at 4° C. The membranes were washed in PBS as described above before detection by Supersignal West Dura Extended Duration Substrate (Pierce).
(§1) Densitometric analysis. The densitometric analysis was performed using Scion Image (www.scioncorp.com) (Scion Coorperation, Mo., USA) or Quantity One version 4.5.0, (BioRad).

[2] = target: T2, RI in lipid rafts of Jurkat T cells (Homo sapiens, UniProt P10644); experiment: PKA content of lipid rafts from transfected Jurkat T cells (densitometry); assay type: cell-based; settings: n=1
T2 construct: endogenous in cells; host or cells: Jurkat T cells
Experimental: as §1
Cell cultures and transient transfections. The human leukemic T cell line Jurkat (clone E6.1), Jurkat TAg, a derivative of the Jurkat cell line stably transfected with the SV40 large T antigen (Clipstone, N. A., and Crabtree, G. R., 1992, Nature. 357:695-697) was cultured at 37° C. in RPMI medium (Gibco BRL) supplemented with 10% fetal calf serum, 2 mM glutamine, penicillin, streptomycin, 1 mM sodium pyruvate and nonessential amino acids. For transfections, cells (5×10^6) in 0.4 ml Opti-MEM were mixed with 40 μg of each DNA construct (GFP-MEME3 or GFP-Scrambled MEME3) in electroporation cuvettes with a 0.4-cm electrode gap (BioRad Laboratories) and subjected to an electric field of 250 V/cm with 960 μF capacitance. A total of 2×10^7 cells were transfected per DNA construct. The cells were expanded in complete medium and harvested after 20 h. The transfection efficiency was determined by microscopic analysis.
Immunoblot analysis. Immunocomplexes and lipid raft fractions were analysed on a 10, 15% or 4-20% PAGE and blotted onto PVDF membranes. […]
Lipid Raft Purification. […] The fractions were analysed by immunoblot analysis. […]

[3] = target: T3, RIIα (Mus musculus, UniProt P12367); experiment: Fluorescence polarization, dissociation constant for RII; assay type: binding; settings: qualitative
T3 construct: His tag; made in house; host or cells: E. coli BL21 (B121 [sic])
T3 sequence (P12367 whole entry): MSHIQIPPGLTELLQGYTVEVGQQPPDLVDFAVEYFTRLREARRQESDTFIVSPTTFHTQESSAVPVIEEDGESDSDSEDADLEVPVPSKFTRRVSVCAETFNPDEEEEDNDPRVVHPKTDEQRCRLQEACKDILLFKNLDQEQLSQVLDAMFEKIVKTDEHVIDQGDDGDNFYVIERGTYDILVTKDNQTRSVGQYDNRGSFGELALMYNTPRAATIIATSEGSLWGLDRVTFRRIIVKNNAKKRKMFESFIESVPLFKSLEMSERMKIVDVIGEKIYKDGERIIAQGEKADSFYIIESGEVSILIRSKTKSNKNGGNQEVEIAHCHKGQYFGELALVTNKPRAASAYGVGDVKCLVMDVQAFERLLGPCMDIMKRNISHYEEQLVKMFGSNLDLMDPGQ
Experimental: Fluorescence Polarization. FITC-labeled peptides (SynPep, San Diego) that were used for fluorescence polarization studies included MEME3 (LEQYANQLADQIIKEATEK(5-Carboxyfluorescein)-CONH2) and MEME3 scrambled peptide (IEKELAQQYQNADAITLEK(5-Carboxyfluorescein)-CONH2). Peptides (0.5 nM for RI experiments and 1 nM for RII experiments) were suspended to working dilutions in phosphate-buffered saline containing 5 μg/μl BSA, pH 7.0. Increasing concentrations of recombinant bovine RI wt or recombinant murine RII were added to a PBS solution and mixed with each FITC-labeled peptide. Each sample was incubated for 2.5 hours. Fluorescence polarization was measured on a Beacon 2000 (Panvera, Madison, Wis.), following the manufacturer's instructions. Saturation binding curves were generated with PRISM graphing software (GraphPad, San Diego). Dissociation constants (Kd) were calculated from the nonlinear regression curve from averages of minimum three individual experiments.
Protein expression and purification. Human RI, Bovine RI and N-terminal deletions thereof or murine RII was expressed in E. coli B121 by IPTG induction. The RI containing pellet was incubated in lysis buffer (10 mM MOPS, pH 6.5, 100 mM NaCl, 10 μM DTT added protease inhibitors) and sonicated (Branson Sonifier 250) for 1 minute in three intervals at 0° C. […]

T1 sequence (P00514 whole entry A98S): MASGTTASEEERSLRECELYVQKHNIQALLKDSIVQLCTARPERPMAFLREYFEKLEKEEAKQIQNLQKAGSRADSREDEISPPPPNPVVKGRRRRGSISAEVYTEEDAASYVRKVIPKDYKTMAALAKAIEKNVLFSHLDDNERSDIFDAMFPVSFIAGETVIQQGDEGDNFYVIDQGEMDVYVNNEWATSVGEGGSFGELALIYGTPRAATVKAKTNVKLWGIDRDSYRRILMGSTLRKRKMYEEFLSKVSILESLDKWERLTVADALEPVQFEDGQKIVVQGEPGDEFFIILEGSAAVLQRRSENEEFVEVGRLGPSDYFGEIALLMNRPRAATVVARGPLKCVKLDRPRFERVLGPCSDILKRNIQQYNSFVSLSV

Row | interaction with RII subunit [3] | Compound | competition of RI-binding to membrane-bound MEME3 ([1]; 500 nM peptide in solution) | affinity for RI compared to that of PDSM ([1]; densitometry of autoradiographs, n=3, higher) | RI binding (RI-32P-overlay, autoradiography) ([1]; peptides on membrane, qualitative) | reduction of RI concentration in lipid rafts compared to SM3 [2]
1 | – | CC[C@H](C)[C@H](NC(=O)[C@H](CCC(N)=O)NC(=O)[C@H](CC(=O)O)NC(=O)[C@H](C)NC(=O)[C@H](CC(C)C)NC(=O)[C@H](CCC(N)=O)NC(=O)[C@H](CC(N)=O)NC(=O)[C@H](C)NC(=O)[C@H](Cc1ccc(O)cc1)NC(=O)[C@H](CCC(N)=O)NC(=O)[C@H](CCC(=O)O)NC(=O)[C@@H](N)CC(C)C)C(=O)N[C@H](C(=O)N[C@@H](CCCCN)C(=O)N[C@@H](CCC(=O)O)C(=O)N[C@@H](C)C(=O)N[C@H](C(=O)N[C@@H](CCC(=O)O)C(=O)N[C@@H](CCCCNC(=O)c1ccc2c(c1)C(=O)OC21c2ccc(O)cc2Oc2cc(O)ccc21)C(N)=O)[C@@H](C)O)[C@@H](C)CC [MEME3] | competed the RI-binding | 1.9 times | bound with high affinity to RIα | 40%
2 | did not interact with either R subunit | IEKELAQQYQNADAITLE [SM3, scrambled MEME3 negative control peptide, reference compound] | – | – | – | –
